Data: a melting point compilation (Tetko et al.; mined from patent text by program, amines drawn as free bases though some values may be those of a salt)

With `CCCOc1ccccc1C(=O)Nc1sccc1C(N)=O` the melting point was 176 to 178 °C.
Work on `COc1ccc(C(=O)NC[C@@H]2CN3C(=O)C[C@H]3O2)cc1` (racemic) yielded a melting point of 143 °C.
Compound `CN(C(=O)c1ccc(-n2cccn2)cc1)C1CCN(C(=O)OC(C)(C)C)CC1` has a melting point of 164 to 166 °C.
Compound `NCCCc1nc2c([nH]1)-c1ccccc1N(C(=O)c1ccc(NC(=O)c3ccccc3-c3ccccc3)cc1)CC2` has a melting point of 220 to 223 °C.
With `O=C(O)Cc1cc(O)c2c(c1)CCc1ccccc1C2=O` the melting point was 149 to 151 °C.
Compound `CC(C)(N)c1ccc(-c2nc(Nc3ccc(CCN4CCCCC4)cc3)ncc2C#N)cc1` has a melting point of 114 °C.
For `CCOC(=O)C(C(=O)C=CC(C)Oc1ccc(Oc2ccc(C(F)(F)F)cc2)cc1)C(=O)OCC` (stereo not given), the melting point was 52 to 55 °C.
`CCCc1ccnc2c(=O)[nH]c(-c3cc([N+](=O)[O-])ccc3OCC)nc12` gave a melting point of 257 to 259 °C.
Compound `CSc1cn(C)c2cc(-c3cccc(Cl)c3)sc2c1=O` has a melting point of 234 to 236 °C.
`Cn1cccc1C(=O)Nc1nc(-c2cccc(C#N)c2)c(-n2cncn2)s1` showed a melting point of 245 to 247 °C.
Compound `O=C(O)CCC(=O)c1ccc([N+](=O)[O-])c(O)c1` has a melting point of 158 to 160 °C.
Work on `CNC1(c2cccc(NC(=O)c3cc(OC)c(OC)c(OC)c3)c2)NC=Nc2cc(OC)c(OC)cc21` (stereo not given) yielded a melting point of 122 to 124 °C.
`N#CCc1cn(Nc2ccncc2)c2ccccc12` gave a melting point of 80 to 83 °C.
Work on `COc1ccc2nccc(CCC[C@@H]3CCN(CC#Cc4ccccc4F)C[C@@H]3C(=O)O)c2c1` yielded a melting point of 154 °C.
`COc1nsc(S(C)(=O)=O)c1C#N` gave a melting point of 167 to 168 °C.
`CC(F)(F)c1ccc2c(c1)C=C(C(=O)O)C(C(F)(F)F)O2` (stereo not given) gave a melting point of 156 to 158 °C.
Work on `CCCCCOC(=O)CCNCC(O)COc1ccccc1C#N` (stereo not given) yielded a melting point of 91 °C.
With `COc1ccc(/C(C)=C/c2ccncc2)cc1OC1CCCC1` the melting point was 78 to 79 °C.
In the case of `O=C(O)COc1ccc(-c2c3ccc(OCC(=O)O)cc3cc3sc4ccccc4c23)cc1`, the melting point is reported as 245 to 246 °C.
Work on `N#Cc1cccc(Cl)c1-c1[nH]c(=O)c(-c2ccccc2)cc1C(=O)O` yielded a melting point of 279 °C.
For `Cn1c(CCN2CCN(Cc3ccccc3)CC2)nc2cc(Br)c3ccccc3c21`, the melting point was 155 to 157 °C.
`O=C(CC1=C(n2nc(-c3c(-c4ccccc4)nn4ccccc34)ccc2=O)CCCC1)N1CCCCC1` showed a melting point of 184 to 185 °C.
`CC1(C)CC(=O)C(c2ccc([N+](=O)[O-])cc2Cl)C(=O)C1` showed a melting point of 250 to 253 °C.
Work on `CC(CC(=O)O)C(=O)c1ccc(F)cc1` (stereo not given) yielded a melting point of 75 to 78 °C.
With `COc1c(C)c(C)c(OC)c(CBr)c1C` the melting point was 71 to 72 °C.
Compound `O=C1CC2(c3ccccc3)CCCC=C2C(=O)N1CC1CCCCC1` (stereo not given) has a melting point of 111 to 113 °C.
`N#CNC(=N)NCCCN1CCC(c2noc3cc(F)ccc23)CC1` gave a melting point of 178 to 181 °C.
`CCCCc1ccc(CCc2cc3c(s2)NC(=S)CN=C3c2ccccc2Cl)cc1` gave a melting point of 152 to 154 °C.
Compound `CC1C=CC=CN2C3=C(C(=O)CCC3)N(C(=O)Nc3ccccc3F)C12` (stereo not given) has a melting point of 139 to 141 °C.
`Cc1ncn(-c2ccc(C(=O)N3Cc4cccn4Cc4ccccc43)c(C(F)(F)F)c2)n1` showed a melting point of 148 to 150 °C.
For `O=c1[nH]c(N[N+](=O)[O-])ncc1Cc1cccnc1`, the melting point was 214 to 216 °C.
For `C[C@H](NC(=O)C[C@H](O)CC(=O)/C=C/c1c(C2CC2)nc2ccccc2c1-c1ccc(F)cc1)c1ccccc1`, the melting point was 150 to 151 °C.
For `Oc1ncnc2nc(-c3cccc(Cl)c3)cnc12`, the melting point was greater than 315 °C.
Work on `CCOCc1nc2c(N)nc3ccccc3c2n1CCCCS(N)(=O)=O` yielded a melting point of 155 to 158 °C.
Work on `CCOC(=O)c1cc(Cl)c(F)c(Cl)c1` yielded a melting point of 59.5 to 60 °C.
With `O=[N+]([O-])c1ccc2nc(CO)[nH]c2c1` the melting point was 157 to 162 °C.
With `Cc1nc(NC(=O)c2cnn3c(C(F)(F)F)cc(-c4ccc(Cl)cc4)nc23)sc1S(N)(=O)=O` the melting point was 305 °C.
In the case of `OC1(c2ccc(Cl)c(Cl)c2)CCN(CCCOc2ccc(Cl)c(Cl)c2)CC1`, the melting point is reported as 118 °C.
For `COc1cc(Nc2c(C#N)cnc3cc(OCCOCCN4CCNCC4)c(OC)cc23)c(Cl)cc1Cl`, the melting point was 88 to 90 °C.
With `CN(C)C=Cc1ncc([N+](=O)[O-])n1CCN1CCOCC1` the melting point was 105 to 106 °C.
Compound `COC(=O)C(c1ccccc1)(c1ncc[nH]1)c1ccccc1C` (stereo not given) has a melting point of 148 °C.
`CC1CCC2(C)C(CCC3C4CCC(=O)C4(C)CCC32)C1` (stereo not given) showed a melting point of 107 to 108 °C.
`Cc1ccccc1C(=O)Nc1ccc(-n2nc(C(F)(F)F)cc2C2CC2)cc1` showed a melting point of 143 to 146 °C.
In the case of `CC(C)(C)OC(=O)NCCCCCC(=O)Nc1cccnc1`, the melting point is reported as 96 to 98 °C.
In the case of `CCOC(=O)c1nc(-c2ccc(OC)cc2)ns1`, the melting point is reported as 61 to 63 °C.
Work on `S=P(SC1CCCCC1)(C1CCCCC1)C1CCCCC1` yielded a melting point of 82 to 85 °C.
Work on `CC(Cc1ccc(OCC(=O)O)cc1)NS(=O)(=O)c1ccc(Cl)cc1` (stereo not given) yielded a melting point of 132 to 136 °C.
`O=C(O)c1cc(S(=O)(=O)N2CCC(CCl)CC2)ccc1Cl` showed a melting point of 175 to 177 °C.
With `CCOC(=O)/C(=N\OCC(=O)N1CCCCCC1)c1csc(N)n1` the melting point was 163 to 164 °C.
`Cn1ncnc1COc1nc2c(-c3ccccc3F)nncn2c1-c1ccccc1` gave a melting point of 195 °C.
In the case of `CSC(Nc1cc(Cl)cc(Cl)c1)=C(C#N)S(=O)(=O)c1ccc(Cl)cc1`, the melting point is reported as 128 to 131 °C.
With `NC(=S)c1ccc(I)cc1` the melting point was 163 to 165 °C.
`ClCc1conc1-c1ccc(-c2ccccc2)cc1` showed a melting point of 102 to 103 °C.
With `CS(=O)(=O)Nc1cc2c(cc1Oc1ccc(F)cc1F)C(=O)CC2c1ccccc1` (stereo not given) the melting point was 101 °C.
`CC1(CN2CCCN(Cc3ccc(-c4ccccc4)cc3)CC2)Cn2cc([N+](=O)[O-])nc2O1` (stereo not given) gave a melting point of 138 to 142 °C.
`CCCCCCCCCCCCCCCCCCCc1cc(N)cc(CCCCCCCCCCCCCCCCCCC)c1` gave a melting point of 51 to 53 °C.
With `CCOC(=O)CCCCCOc1ccc(C(=O)Nc2ccccc2S(=O)(=O)c2ccccc2-c2nnn[nH]2)cc1` the melting point was 180 to 181 °C.
Compound `CS(=O)(=O)c1ccc(C(=O)c2ccc(F)cc2)cc1` has a melting point of 136 °C.
For `CCCc1c(OCCCCCOc2ccc3c(c2CCC)OC(C(=O)O)CC3O)ccc(C(C)=O)c1O` (stereo not given), the melting point was 95.5 to 97.5 °C.
In the case of `COc1ccc2c(c1)CC[C@@H](Br)[C@@H]2O` (relative stereo), the melting point is reported as 80 to 82 °C.
Compound `Cc1ccc(NC(=O)c2ccc(CN3CCC[C@H](N(C)C)C3)c(C(F)(F)F)c2)cc1Nc1nccc(-c2cncnc2)n1` has a melting point of 160 to 162 °C.
With `CCOC(=O)c1cnc2c(c1Cl)CCCCCC2` the melting point was 33 to 36 °C.
`Cn1c2ccccc2c2cc(CO)ccc21` showed a melting point of 96 °C.
`CC(C)CC(S)C(=O)NC1(C(=O)NC(Cc2ccc(-c3ccc(-c4cccc5ccccc45)cc3)cc2)C(=O)O)CCCC1` (stereo not given) gave a melting point of 187 to 189 °C.
With `CCCCCCOC1CCC(=O)N1` (stereo not given) the melting point was 35 to 37 °C.
`O=C(Oc1ccccc1)N1CCCc2nc3ccccc3c(O)c2C1` gave a melting point of 299 °C.
Work on `CCOC(=O)C1CCc2cc(Cc3cnc(N)s3)ccc2C1` (stereo not given) yielded a melting point of 147 to 149 °C.
For `Cc1cc(Nc2ccc(NC(=O)c3ccc(Nc4ccnc5ccc(Cl)cc45)cc3)cc2)nc(N)n1`, the melting point was 250 to 254 °C.
`CNC(=O)N(C)c1nc(CC(=O)Nc2cccc(C(F)(F)F)c2)cs1` gave a melting point of 125 to 127 °C.
With `CCOC(=O)CC(=O)c1ccc([N+](=O)[O-])c(OC)c1` the melting point was 94 to 95 °C.
